Data set [1] in a line: Optical anisotropy Δn (589 nm, 20° C.), host mixture ZLI-4792. The class given is physicochemical. The note with it: 5% in ZLI-4792. The procedure: The host mixture used for determining the applicationally relevant physical parameters is ZLI-4792 from Merck KGaA, Germany. As an exception, the determination of the dielectric anisotropy of dielectrically negative compounds is carried out using ZLI-2857, likewise from Merck KGaA, Germany. The values for the respective compound to be investigated are obtained from the change in the properties, for example the dielectric constants, of the host mixture after addition of the compound to be investigated and extrapolation to 100% of the compound employed. […]
(§1) All concentrations in this application, unless explicitly stated otherwise, are indicated in percent by weight and relate to the corresponding mixture as a whole. All physical properties are and have been determined in accordance with “Merck Liquid Crystals, Physical Properties of Liquid Crystals”, status November 1997, Merck KGaA, Germany, and apply to a temperature of 20° C., unless explicitly stated otherwise. An is determined at 589 nm and Δ∈ at 1 kHz.
The following examples are intended to explain the invention without limiting it. Above and below, percentages are percent by weight. […] V10, V50 and V90 (the threshold voltage, mid-grey voltage and saturation voltage respectively) and V0 (the capacitive threshold voltage) were each determined at 20° C.

Data set [2] in a line: Dielectric anisotropy Δ∈ of the compounds, dissolved in a liquid-crystalline host, capacitance at 1 kHz, extrapolated to 100%. In kind it is physicochemical. The note with it: extrapolated from 5% solution in ZLI-2857, 20° C.
Excerpt: In the present application, the term dielectrically positive compounds denotes compounds having a Δ∈ of >1.5, the term dielectrically neutral compounds denotes those in which −1.5≦Δ∈≦1.5, and the term dielectrically negative compounds denotes those having a Δ∈ of <−1.5. The […] of this mixture at 1 kHz in at least one test cell with a layer thickness of about 20 μm having a homeotropic surface alignment and at least one test cell with a layer thickness of about 20 μm having a homogeneous surface alignment. The measurement voltage is typically 0.5 V to 1.0 V, but is always less than the capacitive threshold of the respective liquid-crystal mixture. […]
as §1
The following examples are intended to explain the invention without limiting it. […] V10, V50 and V90 (the threshold voltage, mid-grey voltage and saturation voltage respectively) and V0 (the capacitive threshold voltage) were each determined at 20° C.

The structures appear in SMILES notation.

This is an account of results in patent US7824745B2, “Benzochromene derivatives” (Merck Patent GmbH, priority 2005, dated 2010).

A word on the melting point: it is the temperature, or range, at which the solid turns liquid. On to `CCCC1CCc2c(c(=O)oc3cc(OCC)ccc23)C1` (stereo not drawn) [Example 1.1, 3-ethoxy-8-propyl-7,8,9,10-tetrahydrobenzo[c]chromen-6-one], for which the melting point stood at 108 °C. The Δn in data set [1] stood at 0.1302. In addition, in data set [2], the “Δ∈” value was −7.5.
